According to publication PMC9529094, “Identification of natural cytochalasins as leads for neglected tropical diseases drug discovery” (PLoS ONE, 2022):
Read-outs that look alike come from different tables or passages of the source.

How the values were obtained:
[1] = tested on: intracellular T. cruzi Tulahuen LacZ amastigotes; test: microbe, parasite or virus in culture; type: cell-based, Trypanosoma cruzi
Protocol: (§1) The epimastigote forms of the T. cruzi Tulahuen strain, which expresses the E. coli β-galactosidase gene lacZ [11], were grown in liver infusion tryptone (LIT) supplemented with 10% FCS (Cultilab) and 1% pen/strep (Sigma–Aldrich) at 28°C. Metacyclogenesis from epimastigotes to trypomastigotes was induced by the incubation of the epimastigotes in Grace’s insect medium (Sigma-Aldrich, 28°C) every 5 days. After 5 days, the trypomastigote forms were used to infect the HFF-1 cells. The promastigote forms of L. infantum were maintained in Schneider’s insect medium (Sigma-Aldrich) supplemented with 10% FCS (Cultilab) and 1% pen/strep (Sigma-Aldrich) at 28°C and subcultured every 6 or 7 days.
In vitro assays against T. cruzi were performed as described previously. HFF-1 human fibroblasts were seeded at 4x10^3/well in 96-well tissue culture plates in DMEM (Cultilab) without phenol red and then incubated overnight (37°C, 5% CO2). Next, trypomastigotes were added at 4x10^4/well, and the plates were incubated (37°C, 5% CO2). After 24 h, 2-fold serial dilutions of the test compounds were added at concentrations ranging from 64 to 0.12 μM, and the plates were then incubated (37°C, 5% CO2). Each compound concentration was evaluated in duplicate. All the plates included BZ (64–0.12 μM) (Sigma-Aldrich) as a positive control and untreated wells (100% growth) as a negative control. After 120 h, chlorophenol red β-D-galactopyranoside (CPRG, Sigma-Aldrich) was added to each well. The absorbance was measured at 570 nm in an automated SpectraMax 384 microplate reader (Sunnyvale, CA, USA), and the data were analysed using GraphPad Prism version 8.0 (San Diego, CA, USA) for IC50 value calculation.
(§2) The analyses were performed using GraphPad Prism version 8.0 (GraphPad Software, San Diego, CA, USA). Both the IC50 and CC50 values were calculated by adjusting the sigmoid dose-response curves, and the selectivity index (SI) values were determined by CC50/IC50 [16]. Statistical analyses were performed using one-way ANOVA followed by Dunnett’s multiple comparison test.

[2] = in vitro; type: cell-based; details: human, 72 h, MTS
Protocol: (§3) THP-1 (human monocyte cell line) cells were cultivated in RPMI medium supplemented with 10% foetal calf serum (FCS) (Cultilab, Campinas, SP, BR) and 1% penicillin and streptomycin (pen/strep—Sigma-Aldrich) at 37°C under 5% CO2, and HFF-1 (human fibroblast) and HepG2 (hepatocytes) cells were cultivated in DMEM without phenol red (Cultilab) supplemented with 10% FBS (Sigma-Aldrich) and 1% pen/strep at 37°C under 5% CO2.
The cytotoxicity of the compounds against HFF-1 fibroblasts and HepG2 hepatocytes was evaluated using the MTS tetrazolium assay (Promega, Madison, WI, USA). HFF-1 fibroblasts were seeded at 4x10^3/well in 96-well culture plates in DMEM without phenol red and incubated overnight (37°C, 5% CO2). HepG2 hepatocytes were seeded at 7x10^3/well in 96-well culture plates in DMEM (Cultilab) with supplements (10% FCS, 1% pen/strep) and incubated overnight (37°C, 5% CO2). The compounds were added in 2-fold serial dilutions at the same concentrations described before, and the plates were incubated as described before. Each compound concentration was evaluated in duplicate. All the plates included doxorubicin (DOX) (Sigma-Aldrich) as a positive control (10–0.01 μM) and untreated wells as a negative control (100% growth). After 72 h, 15 μL of MTS (Promega) was added, and the plates were incubated for 4 h. The absorbance was measured at 490 nm in an automated SpectraMax 384 microplate reader (Sunnyvale, CA, USA), and the data were analysed using GraphPad Prism version 8.0 for CC50 value calculation. The percentage of nonviable cells was determined and compared to the negative control wells (100% growth).

[3] = in vitro; type: cell-based; details: human; 72 h, resazurin; read-out: THP-1 CC50 (μM ± SD)
Protocol: as §3
THP-1 cells were seeded at 2x10^4/well in 96-well culture plates in RPMI 1640 supplemented (10% FCS, 1% pen/strep) and incubated overnight (37°C, 5% CO2). The compounds were added in 2-fold serial dilutions (64–0.12 μM), and the plates were incubated as described before. Each compound concentration was evaluated in duplicate. All the plates included DOX (Sigma-Aldrich) as a positive control (10–0.01 μM) and untreated wells as a negative control (100% growth). After 72 h, 20 μL of resazurin (Sigma-Aldrich) was added, and the plates were incubated for 4 h. The absorbance was measured at 536 and 588 nm in an automated microplate reader SpectraMax Gemini, and the data were analysed using GraphPad Prism version 8.0 for CC50 value calculation. The percentage of nonviable cells was determined and compared to the negative control wells (100% growth).

[4] = tested on: intracellular L. infantum amastigotes; test: microbe, parasite or virus in culture; type: cell-based, Leishmania infantum
Protocol: as §1
In the intracellular amastigote assay, THP-1 cells were seeded at 2x10^4/well (RPMI-1640, 100 μL) with phorbol 12-myristate 13-acetate (PMA) at 20 ng/mL for differentiation into macrophages. After incubation for 72 h (5% CO2, 37°C), the medium was aspirated, and late-stage L. infantum promastigotes were added (2x10^5/well, 100 μL). Following 24 h of incubation, the medium was aspirated to clear extracellular parasites, and the compounds were added in serial dilutions (2-fold) to final concentrations of 64–0.12 μM. The plates included negative controls (100% growth) and MIL (64–0.12 μM) as a positive control. After 120 h of incubation, the medium was removed, and the cells were fixed in methanol and stained with Giemsa. The average number of intracellular amastigotes per THP-1-cell was determined using an inverted microscope and a cell counter. Growth inhibition is expressed as a percentage of the average number of amastigotes per macrophage in the negative control wells. The IC50 values were obtained using GraphPad Prism version 8.0.
as §2

| SMILES | IC50 ([1]; Trypanosoma cruzi, intracellular amastigotes, Tulahuen LacZ, HFF-1 host cells, 120 h, read-out: T. cruzi IC50 (μM ± SD)) | SI^1 (CC50 HFF-1/IC50 T. cruzi) ([1]; selectivity index) | CC50 ([2]; read-out: HFF-1 CC50 (μM ± SD)) | CC50 ([2]; read-out: HepG2 CC50 (μM ± SD)) | CC50 [3] | IC50 ([4]; Leishmania infantum, THP-1, 120 h, intracellular amastigotes in THP-1 macrophages, 120 h, read-out: L. infantum IC50 (μM ± SD)) | SI^2 (CC50 THP-1/IC50 L. infantum) ([4]; selectivity index) |
| --- | --- | --- | --- | --- | --- | --- | --- |
| O=C(Cn1ccnc1[N+](=O)[O-])NCc1ccccc1 [BZ, benznidazole, reference compound] | 5.2 ± 1.87 µM | >12.3 | > 64 µM | – | – | – | – |
| COc1cccc2c1C(=O)c1c(O)c3c(c(O)c1C2=O)C[C@@](O)(C(=O)CO)C[C@@H]3O[C@H]1C[C@H](N)[C@H](O)[C@H](C)O1 [DOX, doxorubicin, reference compound] | – | – | 0.69 ± 0.08 µM | 0.24 ± 0.06 µM | 0.97 ± 0.31 µM | – | – |
| CCCCCCCCCCCCCCCCOP(=O)([O-])OCC[N+](C)(C)C [MIL, miltefosine, reference compound] | – | – | – | – | 58.5 ± 5.37 µM | 1.1 ± 0.16 µM | 53.14 |
